From patent US12162888B2, “Carboxamides as ubiquitin-specific protease inhibitors” (Valo Early Discovery, Inc., priority 2018, dated 2024) come the findings set out here.

This assay concerns the target T1, USP25 (USP25-His6, Boston Biochem E-546) (Homo sapiens, UniProt Q9UHP3).
T1 construct: His6 (C); purchased Boston Biochem E-546
T1 sequence (Q9UHP3 1-1055): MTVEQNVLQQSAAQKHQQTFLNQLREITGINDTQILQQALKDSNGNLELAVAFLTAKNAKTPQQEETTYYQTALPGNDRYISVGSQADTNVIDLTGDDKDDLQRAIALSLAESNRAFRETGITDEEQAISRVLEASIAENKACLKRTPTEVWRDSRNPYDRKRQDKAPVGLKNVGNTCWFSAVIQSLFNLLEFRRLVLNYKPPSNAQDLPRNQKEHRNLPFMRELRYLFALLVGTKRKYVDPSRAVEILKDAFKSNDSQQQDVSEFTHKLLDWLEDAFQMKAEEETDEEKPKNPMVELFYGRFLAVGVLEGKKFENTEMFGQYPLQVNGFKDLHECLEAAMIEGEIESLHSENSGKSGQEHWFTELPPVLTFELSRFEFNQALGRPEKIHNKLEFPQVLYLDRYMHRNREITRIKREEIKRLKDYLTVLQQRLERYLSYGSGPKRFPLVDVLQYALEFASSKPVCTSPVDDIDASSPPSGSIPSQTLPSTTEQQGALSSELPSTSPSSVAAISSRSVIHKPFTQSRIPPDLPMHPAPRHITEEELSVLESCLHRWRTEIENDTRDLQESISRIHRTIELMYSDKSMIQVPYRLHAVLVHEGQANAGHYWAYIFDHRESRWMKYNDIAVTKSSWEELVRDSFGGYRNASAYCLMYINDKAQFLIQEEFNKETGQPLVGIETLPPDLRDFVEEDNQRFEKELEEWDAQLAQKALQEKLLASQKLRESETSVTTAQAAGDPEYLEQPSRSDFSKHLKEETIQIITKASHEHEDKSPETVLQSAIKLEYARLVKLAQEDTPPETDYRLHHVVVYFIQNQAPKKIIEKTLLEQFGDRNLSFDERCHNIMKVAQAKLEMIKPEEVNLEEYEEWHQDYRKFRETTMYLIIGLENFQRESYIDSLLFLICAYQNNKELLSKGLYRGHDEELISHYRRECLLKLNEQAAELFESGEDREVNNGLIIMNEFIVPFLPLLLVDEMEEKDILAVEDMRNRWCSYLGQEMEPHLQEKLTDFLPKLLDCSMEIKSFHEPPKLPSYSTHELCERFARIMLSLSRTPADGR
Kind of assay: Ubiquitin-Rhodamine 110 Assay for USP25 Activity, Example A-3. Format: biochemical. Conditions: Ubiquitin-Rhodamine 110 assay, Example A-3; read-out: USP25 A-3 IC50 range. On the procedure: Example A-3: Biochemical Assay: Ubiquitin-Rhodamine 110 Assay for USP25 Activity
The assay was performed in a final volume of 9 μL in assay buffer containing 20 mM Tris-HCl (pH 8.0, (1M Tris-HCl, pH 8.0 solution; Corning 46-031-CM)), 3 mM BME (2-Mercaptoethanol; Sigma 63689-25ML-F), 0.03% BGG (0.22 μM filtered, Sigma, G7516-25G), and 0.01% Triton X-100 (Sigma, T9284-10L). Nanoliter quantities of 10-point, 3-fold serial dilution in DMSO was pre-dispensed into 1536 assay plates (Corning, #3724BC) for a final test concentration of 25 μM to 1.3 nM, top to lowest dose, respectively. Enzyme USP25, construct USP25-His6, (Boston Biochem E-546). Concentration and incubation times were optimized for the maximal signal-to-background while maintaining initial velocity conditions at a fixed substrate concentration. The final concentration of the enzyme in the assay was […]. Final substrate (Ub-Rh110; Ubiquitin-Rhodamine 110, R&D Systems #U-555) concentration was 25 nM with [Ub-Rh110]<<Km. 3 μL of 2× enzyme was added to assay plates (pre-stamped with compound) preincubated with […] for 30 minutes and then 3 μL of 2× Ub-Rh110 was added to assay plates. Plates were incubated for 45 minutes at room temperature before addition of 3 μL of stop solution (final concentration of 10 mM citric acid (Sigma, 251275-500G)). Fluorescence was read on the Envision (Excitation at 485 nm and Emission at 535 nm; Perkin Elmer) or on the PheraSTAR (Excitation at 485 nm and Emission at 535 nm; BMG Labtech).
For assay formats Example A-1(a), A-1(b), and A-2, data were reported as percent inhibition compared with control wells based on the following equation: % inh=1−((FLU−AveLow)/(AveHigh−AveLow)) where FLU=measured Fluorescence, AveLow=average Fluorescence of no enzyme control (n=16), and AveHighh=average Fluorescence of DMSO control (n=16). IC50 values were determined by curve fitting of the standard 4 parameter logistic fitting algorithm included in the Activity Base software package: IDBS XE Designer Model 205. Data is fitted using the Levenburg Marquardt algorithm.

Each structure is given as a SMILES string. Some results are limits rather than exact numbers.

For `Cc1ccc2c(N)c(C(=O)N[C@H]3CCc4nc(N5CC[C@@](N)(CO)C5)ccc4C3)sc2n1` [Example 387, 3-amino-N-[(6S)-2-[(3S)-3-amino-3-(hydroxymethyl)pyrrolidin-1-yl]-5,6,7,8-tetrahydroquinolin-6-yl]-6-methylthieno[2,3-b]pyridine-2-carboxamide], the concentration for half-maximal inhibition (IC50) (commonly the midpoint of a concentration-inhibition curve) was above 2000 nM.
Take `Cc1ccc2c(N)c(C(=O)N[C@@H]3CCc4nc(N5C[C@@H](N)[C@H](C(F)F)C5)ncc4C3)sc2n1` [Example 382, 3-amino-N-[(6R)-2-[(3S,4R)-3-amino-4-(difluoromethyl)pyrrolidin-1-yl]-5,6,7,8-tetrahydroquinazolin-6-yl]-6-methylthieno[2,3-b]pyridine-2-carboxamide]: the half-maximal inhibitory concentration (IC50) is above 2000 nM.
Turning to `Cc1ccc2c(N)c(C(=O)N[C@@H]3CCc4nc(N5C[C@H](C(F)F)[C@@H](N)C5)ncc4C3)sc2n1` [Example 383, 3-amino-N-[(6R)-2-[(3R,4S)-3-amino-4-(difluoromethyl)pyrrolidin-1-yl]-5,6,7,8-tetrahydroquinazolin-6-yl]-6-methylthieno[2,3-b]pyridine-2-carboxamide], the IC50 was above 2000 nM.
Consider `Cc1ccc2c(N)c(C(=O)N[C@H]3CCc4nc(N5CC[C@]6(C5)OCC[C@H]6N)ccc4C3)sc2n1` [Example 408, 3-amino-N-[(6S)-2-[(4R,5R)-4-amino-1-oxa-7-azaspiro[4.4]nonan-7-yl]-5,6,7,8-tetrahydroquinolin-6-yl]-6-methylthieno[2,3-b]pyridine-2-carboxamide], for which the IC50 is above 2000 nM.
`Cc1ccc2c(N)c(C(=O)N[C@H]3CCc4nc(N5C[C@H]6COC[C@@]6(N)C5)ccc4C3)sc2n1` [Example 395, N-[(6S)-2-[(3aS,6aR)-3a-amino-hexahydro-1H-furo[3,4-c]pyrrol-5-yl]-5,6,7,8-tetrahydroquinolin-6-yl]-3-amino-6-methylthieno[2,3-b]pyridine-2-carboxamide]: the concentration for half-maximal inhibition (IC50) lay within 200 to 2000 nM.
Under `CO[C@]12CCN[C@@H]1CN(c1ccc3c(n1)CC[C@H](NC(=O)c1sc4nc(C)ccc4c1N)C3)C2` [Example 435, N-[(6S)-2-[(3aS,6aR)-3a-methoxy-octahydropyrrolo[2,3-c]pyrrol-5-yl]-5,6,7,8-tetrahydroquinolin-6-yl]-3-amino-6-methylthieno[2,3-b]pyridine-2-carboxamide] stands 200 to 2000 nM.
Take `Cc1ccc2c(N)c(C(=O)N[C@H]3CCc4nc(N5C[C@H]6CCN[C@@H](C5)C6(F)F)ccc4C3)sc2n1` [Example 368, 3-amino-N-[(6S)-2-[(1S,5R)-9,9-difluoro-2,7-diazabicyclo[3.3.1]nonan-7-yl]-5,6,7,8-tetrahydroquinolin-6-yl]-6-methylthieno[2,3-b]pyridine-2-carboxamide]: the half-maximal inhibitory concentration (IC50) is 50 to 200 nM.
Turning to `Cc1ccc2c(N)c(C(=O)N[C@H]3CCc4nc(N5CCN[C@H](C(F)F)C5)ccc4C3)sc2n1` [Example 374, 3-amino-N-[(6S)-2-[(3S)-3-(difluoromethyl)piperazin-1-yl]-5,6,7,8-tetrahydroquinolin-6-yl]-6-methylthieno[2,3-b]pyridine-2-carboxamide], the half-inhibitory concentration (IC50) is above 2000 nM.
As to `Cc1ccc2c(N)c(C(=O)N[C@H]3COc4cc(N5CC6CCC(C5)N6)c(F)cc4C3)sc2n1` [Example 104, 3-amino-N-[(3R)-7-{3,8-diazabicyclo[3.2.1]octan-3-yl}-6-fluoro-3,4-dihydro-2H-1-benzopyran-3-yl]-6-methylthieno[2,3-b]pyridine-2-carboxamide], the IC50 was in the range of 50 to 200 nM.
As to `CO[C@@]1(C)CN(c2ccc3c(n2)CC[C@H](NC(=O)c2sc4nc(C)ccc4c2N)C3)C[C@H]1N` [Example 428, 3-amino-N-[(6S)-2-[(3S,4R)-4-amino-3-methoxy-3-methylpyrrolidin-1-yl]-5,6,7,8-tetrahydroquinolin-6-yl]-6-methylthieno[2,3-b]pyridine-2-carboxamide], the IC50 was in the range of 200 to 2000 nM.
